Measurements taken from PMC7213079, “Hit Identification of New Potent PqsR Antagonists as Inhibitors of Quorum Sensing in Planktonic and Biofilm Grown Pseudomonas aeruginosa” (Frontiers in Chemistry, 2020).
“Also recorded” adds a separate entry of the source.

Legend:
Assay type in all cases: cell-based, Pseudomonas aeruginosa
PAO1-L biofilm cultures = assay: AQ quantification in biofilm cultures; conditions: M9 minimal medium, 10 μM, 18 h, versus DMSO control
Source text: Biofilms are a major challenge in the treatment of chronic P. aeruginosa infections because of their resilience and protection of bacteria from environmental stresses such as those posed by the host immune system and antimicrobial agents (Flemming et al., [2007]; Rybtke et al., [2015]). Many genes that are involved in biofilm formation are directly linked to pqs QS signaling (Rampioni et al., [2016]; Lin et al., [2018]). To evaluate the effect of 40 on AQ signaling in biofilm cultures, PAO1-L was grown in M9 minimal medium and challenged with either DMSO control or of 40 (10 μM). Following incubation and cell removal, supernatants were subjected to LC/MS-MS analysis.
Figure 6 Quantification of AQ concentrations in PAO1-L biofilm cultures treated with 40 (10 μM). […] Biofilms were grown in M9 minimal medium for 18 h in 24-well glass bottom plates and supernatants extracted for AQ analysis. […]
screening of the LC eluent for specific AQ analytes. Where chromatographic peaks for HHQ and PQS were detected, a peak area was determined and analyte peak area/internal standard peak area calculated.
AQ quantification in biofilm cultures: […]
For this experiment, the P. aeruginosa PAO1-L strain and M9 minimal medi um were used. […] The supernatant was col lected and the AQ extraction and quantification were performed following the LC MS/MS protocol described above . […]

PAO1-L = assay: Pyocyanin quantification, PAO1-L; conditions: compound at 3 x IC50, 16 h, compared with the control
Source text: (§1) Pyocyanin is an important virulence factor for P. aeruginosa infections and in particular respiratory and urinary tract infections. Pyocyanin is a redox-active phenazine the production of which is regulated via PqsR and PqsE (Hall et al., [2016]; Rampioni et al., [2016]; Higgins et al., [2018]). Therefore, pyocyanin production serves as an indirect readout of the activity of the pqs QS system. […] Compound 40 reduced pyocyanin production by over 80% in both strains in agreement with bioreporter assay results.
(§2) Figure 4 Pyocyanin production by Pseudomonas aeruginosa after treatment with pqs inhibitors 8, 14, 23, 34, 25, 26, and 40. Quantification of pyocyanin production after inhibitor treatment at 3 × IC50 for both PAO1-L and PA14. The graph represents the average of three independent experiments carried out in triplicate (n = 9).
(§3) PAO1-L Wild type PAO1, Lausanne subline. B.
(§4) PAO1-L mCTX::PpqsA- PAO1-L with chromosomal mini-CTX::PpqsA-lux (Soukarieh lux insertion; TcR et al., 2018)
(§5) PA14 Wild type UCBPP-PA14 (Rahme et
(§6) PA14 mCTX::PpqsA-lux PA14 with chromosomal mini-CTX::PpqsA-lux (Soukarieh insertion; TcR et al., 2018) […]
(§7) Pyocyanin quantification: […]
(§8) Pyocyanin pigment was extracted into chloroform by mixing 7.5 mL of supernatant with 4.5 mL of chloroform. Pyocyanin w as further extracted into 1.5 mL of 0.2 M HCL which gave a pink/red solution and the absorbance was measured at 520 nm.

PA14 = assay: Pyocyanin quantification, PA14; conditions: PA14, compound at 3 x IC50, 16 h, compared with the control
Source text: as §1, §2, §3, §4, §5, §6, §7, §8

PAO1-L biofilms = assay: Biofilm viability assay (LIVE/DEAD BacLight, CLSM); conditions: 6 and 24 h
Method: PAO1-L biofilms were established for 2 days before challenging with these treatments for 6 and 24 h followed by Live/Dead staining.
Figure 7 Bar chart showing PAO1-L biofilm viability quantified after treatment with different conditions for 6 or 24 h.
Mature pre-established P. aeruginosa PAO1-L biofilms were grown to assess the effects of co-
For these assays, PAO1-L biofilms were grown on round glass coverslips (8 mm, #1.5 thickness) under flow conditions (20 rpm) in FAB containing 10
mM glucose medium inoculated with a diluted (OD600nm = 0.01) bacterial suspension from overnight
cultures in LB. Biofilms were cultivated at 30°C for 2 days with medium replacement every day.

Cn1c2ccccc2c2nnc(SCC(=O)Nc3ccc(Oc4ccccn4)cc3)nc21 [Compound 40, 2-((5-Methyl-5H-[1,2,4]triazino[5,6-b]indol-3-yl)thio)-N-(4-(pyridin-2-yloxy)phenyl)acetamide]
biosynthesis of AQ signals in biofilm cultures (PAO1-L biofilm cultures): effectively inhibit; also recorded: drastically reduced | inhibition of pyocyanin production (PAO1-L): over 80% | inhibition of pyocyanin production (PA14): over 80% | biofilm viability (PAO1-L biofilms; pre-established PAO1-L biofilms (48 h), 40 at 10 μM): growth of the community increased; also recorded: slight increase in viability | biofilm killing in combination with CIP (PAO1-L biofilms; pre-established PAO1-L biofilms, 40 10 μM combined with ciprofloxacin 60 μg/mL): did not result in an enhanced biofilm killing
